Measurements: PMC7486940, “Pre-symptomatic Caspase-1 inhibitor delays cognitive decline in a mouse model of Alzheimer disease and aging” (Nature Communications, 2020)

What was measured:
[1] = tested on: J20 mice; assay: open field; format: in vivo, mouse; conditions: 50 mg/kg IP 3x/week for 1 month, 4- to 20-week WO
Experimental: (§1) VX-765 (Adooq Bioscience, Irvine, CA, USA) was dissolved 5 mg • ml^−1 in 20% cremophor in dH2O[60] (Sigma-Aldrich, ON, Canada) and administered IPWT and J20 mice received three injections per week of either 50 mg • kg^−1 VX-765 or 20% cremophor vehicle for 4 weeks between 2 and 3 months of age. Mice were longitudinally followed starting 4 weeks after the last injection [4-week washout (WO)], then every other month at 12- and 20-week WO (6 and 8 months of age, respectively). Intermediate 8- and 16-week WO periods were also looked at with a smaller number of mice. After each WO period, animals were randomly chosen, independent of behavioural performance, for sacrifice and assigned to either histological or biochemical analysis (Fig. 2a).
(§2) Open-field and novel object recognition (NOR) were measured at all WO periods. The Barnes maze was assessed at 12- and 20-week WO. Open field: Mice were placed in an open-field chamber, composed of a plexiglass box with no ceiling and white floor, and allowed to explore for 5 min. NOR: Mice were pre-exposed to two identical objects in the open-field chamber for 5 min. Two hours after pre-exposure, mice were placed back into the chamber and exposed to one familiar object and one novel object for 5 min (test phase). Mice were exposed to a specific object only once across multiple test sessions. Barnes maze: Learning acquisition (days 1–4)—each mouse was trained to find the target and enter the escape box within 180 s. Four trials per day, ~15 min apart, were performed for 4 consecutive days. Probe (day 5)—a single, 90 s trial was performed on each mouse to measure primary latency and number of errors to reach the blocked target. Target hole location was changed between the two separate test sessions. Behavioural scoring was blinded to mouse genotype and treatment.

[2] = tested on: WT mice; assay: open field; format: in vivo, mouse; conditions: 50 mg/kg IP 3x/week for 1 month
Experimental: as §1, §2

[3] = in vivo; conditions: female, C57BL/6J, mouse, ip, 50 mg/kg; for half-life: Half-life (t1/2) in plasma; for MRT inf: MRTinf in plasma
Experimental: Plasma, whole brain and CSF concentrations of VX-765 and its active metabolite, VRT-043198, were determined by LC-MS/MS at Paraza Pharma (Montreal, QC, Canada). Fourteen C57BL/6J female mice received a single IP dose of 50 mg · kg^−1 VX-765 and 2 mice per time point were euthanized at 0.25, 0.5, 1, 3, 6, 8 and 24 h post-injection. Mice were isoflurane anesthetized to collect CSF and perform a cardiac puncture followed by whole body perfusion with PBS. Plasma samples were extracted 1:1 in spiking solution and internal standard solution containing 0.1 μM glyburide in acetonitrile. Brain and CSF samples were extracted 1:1 in spiking solution and internal standard solution containing 0.2 μM labetalol in 50:50 methanol:acetonitrile. Samples were centrifuged at 4000 × g for 10 min at 4 °C, the plasma supernatant diluted 1:1 and the brain and CSF supernatant diluted 1:2 in H2O, and 5 μl was injected into a Quantis LC-MS/MS system for analysis.

[4] = tested on: J20 mice; assay: novel object recognition (NOR), episodic memory; format: in vivo, mouse
Experimental: as §1, §2

[5] = tested on: WT mice; assay: novel object recognition (NOR), episodic memory; format: in vivo, mouse
Experimental: as §1, §2

## CCO[C@@H]1OC(=O)C[C@@H]1NC(=O)[C@@H]1CCCN1C(=O)[C@@H](NC(=O)c1ccc(N)c(Cl)c1)C(C)(C)C [VX-765, (S)-1-((S)-2-{[1-(4-amino-3-chloro-phenyl)-methanoyl]-amino}-3,3-dimethyl-butanoyl)-pyrrolidine-2-carboxylic acid ((2R,3S)-2-ethoxy-5-oxo-tetrahydro-furan-3-yl)-amide]
[1]
  open field hyperactivity (distance travelled, quadrant entries): attenuated hyperactivity in J20 mice only at 4-week WO
[2]; WT, all WO periods
  open field activity: had no effect on WT mice at any WO period
[2]; between vehicle and VX-765 treatment
  open field locomotor activity, time moving, thigmotaxis: no differences in locomotor activity, time moving or thigmotaxis
[3]; CSF concentration, Mean
  concentration at 0.25 h: 330 nM
  concentration at 0.5 h: 620 nM
  concentration at 1 h: 80 nM
  concentration at 3 h: 60 nM
  concentration at 6 h: 60 nM
  concentration at 8 h: 100 nM
[3]; CSF concentration, Mouse 1
  concentration at 0.25 h: 210 nM
  concentration at 0.5 h: 70 nM
  concentration at 1 h: 60 nM
  concentration at 3 h: 70 nM
  concentration at 6 h: 50 nM
  concentration at 8 h: 70 nM
[3]; CSF concentration, Mouse 2
  concentration at 0.25 h: 450 nM
  concentration at 0.5 h: 1170 nM
  concentration at 1 h: 100 nM
  concentration at 3 h: 40 nM
  concentration at 6 h: 60 nM
  concentration at 8 h: 130 nM
[3]; Cmax in CSF, Mean
  Cmax: 690 nM
[3]; Cmax in CSF, Mouse 1
  Cmax: 210 nM
[3]; Cmax in CSF, Mouse 2
  Cmax: 1170 nM
[3]; Cmax in brain, Mean
  Cmax: 160 nM
[3]; Cmax in brain, Mouse 1
  Cmax: 240 nM
[3]; Cmax in brain, Mouse 2
  Cmax: 90 nM
[3]; Cmax in plasma, Mean
  Cmax: 1590 nM
[3]; Cmax in plasma, Mouse 1
  Cmax: 1540 nM
[3]; Cmax in plasma, Mouse 2
  Cmax: 1630 nM
[3]; Mean
  half-life: 192 min
  MRT inf: 313 min
[3]; Mouse 1
  half-life: 193 min
  MRT inf: 288 min
[3]; Mouse 2
  half-life: 190 min
  MRT inf: 338 min
[3]; Tmax in CSF, Mean
  Tmax: 22.8 min
[3]; Tmax in CSF, Mouse 1
  Tmax: 15 min
[3]; Tmax in CSF, Mouse 2
  Tmax: 30 min
[3]; Tmax in brain, Mean
  Tmax: 22.8 min
[3]; Tmax in brain, Mouse 1
  Tmax: 15 min
[3]; Tmax in brain, Mouse 2
  Tmax: 30 min
[3]; Tmax in plasma, Mean
  Tmax: 45 min
[3]; Tmax in plasma, Mouse 1
  Tmax: 30 min
[3]; Tmax in plasma, Mouse 2
  Tmax: 60 min
[3]; brain concentration, Mean
  concentration at 0.25 h: 160 nM
  concentration at 0.5 h: 70 nM
[3]; brain concentration, Mouse 1
  concentration at 0.25 h: 240 nM
  concentration at 0.5 h: 50 nM
[3]; brain concentration, Mouse 2
  concentration at 0.25 h: 70 nM
  concentration at 0.5 h: 90 nM
[3]; plasma concentration, Mean
  concentration at 0.25 h: 290 nM
  concentration at 0.5 h: 1010 nM
  concentration at 1 h: 1250 nM
  concentration at 3 h: 400 nM
  concentration at 6 h: 330 nM
  concentration at 8 h: 320 nM
  concentration at 24 h: 10 nM
[3]; plasma concentration, Mouse 1
  concentration at 0.25 h: 310 nM
  concentration at 0.5 h: 1540 nM
  concentration at 1 h: 870 nM
  concentration at 3 h: 450 nM
  concentration at 6 h: 430 nM
  concentration at 8 h: 200 nM
  concentration at 24 h: 8 nM
[3]; plasma concentration, Mouse 2
  concentration at 0.25 h: 270 nM
  concentration at 0.5 h: 490 nM
  concentration at 1 h: 1630 nM
  concentration at 3 h: 350 nM
  concentration at 6 h: 220 nM
  concentration at 8 h: 450 nM
  concentration at 24 h: 14 nM
[4]; J20, 50 mg/kg IP 3x/week for 1 month, pre-symptomatic
  delay of the onset of cognitive impairment: at least 5 months
[4]; J20, pre-symptomatic 50 mg/kg IP 3x/week for 1 month, 4-, 8-, 12-, 16- and 20-week WO, vs vehicle-treated J20
  NOR discrimination index (NOR impairment): protected J20 mice against NOR impairment at all WO periods
[4]; VX-765-treated J20, 50 mg/kg IP 3x/week for 1 month
  percentage of NOR impaired mice: increased consistently between 4- and 20-week WO
[4]; VX-765-treated J20, 50 mg/kg IP 3x/week for 1 month, 4- vs 20-week WO
  NOR performance over washout: declined between 4- and 20-week WO
[5]; VX-765-treated WT, 6-month-old (12-week WO) vs VX-765-treated 4-month-old WT
  NOR performance: increased
[5]; WT, 8-month-old (20-week WO), 50 mg/kg IP 3x/week for 1 month, vs same age vehicle-treated WT
  NOR performance: increased
[5]; WT, 50 mg/kg IP 3x/week for 1 month, 12- to 20-week WO
  percentage of NOR impaired mice: increased between 12- and 20-week WO in the vehicle-treated, but not VX-765-treated WT mice
